{
  "source": "PubChem BioAssay AID212",
  "about": "(DTP/NCI, 2004)",
  "system": "BDF1 mice, colon carcinoma 38 sc, T/C %",
  "test": "NCI In Vivo Anticancer Drug Screen. Data for tumor model Colon Carcinoma 38 (subcutaneous) in B6D2F1 (BDF1) mice",
  "settings": "endpoint: median tumor weight (est.), higher = larger tumour",
  "outline": "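Transplantable tumor in mice; compound-treated vs vehicle-dosed controls. Measured survival or tumor size; value = T ÷ C.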",
  "key": {"[1]": {"settings": "dose: 100.0 mg/kg/injection, schedule: Q07DX002 (ip), vehicle: Klucel (hydroxypropylcellulose) (HPC)"}, "[2]": {"settings": "dose: 200.0 mg/kg/injection, schedule: Q07DX002 (ip), vehicle: Klucel (hydroxypropylcellulose) (HPC)"}, "[3]": {"settings": "dose: 25.0 mg/kg/injection, schedule: Q07DX002 (ip), vehicle: saline"}, "[4]": {"settings": "dose: 50.0 mg/kg/injection, schedule: Q07DX002 (ip), vehicle: saline"}, "[5]": {"settings": "dose: 100.0 mg/kg/injection, schedule: Q07DX002 (ip), vehicle: saline with Tween-80"}, "[6]": {"settings": "dose: 400.0 mg/kg/injection, schedule: Q07DX002 (ip), vehicle: saline with Tween-80"}},
  "note": "Several values for one entry are separate records, joined by “and”; a condition that tells them apart may be missing. Equal values may be shown once. Records with an inconclusive call do not appear.",
  "data": [
    {"smiles": "COC1=C(N)C(=O)c2nc(-c3nc(C(=O)O)c(C)c(-c4ccc(OC)c(OC)c4O)c3N)ccc2C1=O", "values": [
      {"measurement": "T/C", "setting": "dose: 0.05 mg/kg/injection, schedule: Q07DX003 (ip), vehicle: Klucel (hydroxypropylcellulose) (HPC)", "value": "110 % of control"},
      {"measurement": "T/C", "setting": "dose: 0.1 mg/kg/injection, schedule: Q07DX003 (ip), vehicle: Klucel (hydroxypropylcellulose) (HPC)", "value": "93 % of control"},
      {"measurement": "T/C", "setting": "dose: 0.2 mg/kg/injection, schedule: Q07DX003 (ip), vehicle: Klucel (hydroxypropylcellulose) (HPC)", "value": "111 % of control"},
      {"measurement": "T/C", "setting": "dose: 0.4 mg/kg/injection, schedule: Q07DX003 (ip), vehicle: Klucel (hydroxypropylcellulose) (HPC)", "value": "83 % of control"}
    ]},
    {"smiles": "Cc1cc(=NO)cc(C)n1O", "values": [
      {"measurement": "T/C", "setting": "dose: 50.0 mg/kg/injection, schedule: Q07DX002 (ip), vehicle: distilled water + alcohol", "value": "80 % of control"},
      {"measurement": "T/C", "setting": "dose: 100.0 mg/kg/injection, schedule: Q07DX002 (ip), vehicle: distilled water + alcohol", "value": "80 % of control"},
      {"measurement": "T/C", "setting": "dose: 200.0 mg/kg/injection, schedule: Q07DX002 (ip), vehicle: distilled water + alcohol", "value": "98 % of control"},
      {"measurement": "T/C", "setting": "dose: 400.0 mg/kg/injection, schedule: Q07DX002 (ip), vehicle: distilled water + alcohol", "value": "106 % of control"},
      {"measurement": "T/C", "setting": "dose: 800.0 mg/kg/injection, schedule: Q07DX002 (ip), vehicle: distilled water + alcohol", "value": "86 % of control"}
    ]},
    {"smiles": "O=c1ccc2ccccc2o1", "values": [
      {"measurement": "T/C", "setting": "dose: 50.0 mg/kg/injection, schedule: Q07DX002 (ip), vehicle: Klucel (hydroxypropylcellulose) (HPC)", "value": "115 % of control"},
      {"measurement": "T/C", "setting": "[1]", "value": "118 % of control"},
      {"measurement": "T/C", "setting": "[2]", "value": "118 % of control"}
    ]},
    {"smiles": "CCN(CC)CCNC(=O)Cc1cccc2c(=O)cc(-c3ccccc3)oc12", "values": [
      {"measurement": "T/C", "setting": "[1]", "value": "101 % of control"},
      {"measurement": "T/C", "setting": "[2]", "value": "96 % of control"},
      {"measurement": "T/C", "setting": "dose: 400.0 mg/kg/injection, schedule: Q07DX002 (ip), vehicle: Klucel (hydroxypropylcellulose) (HPC)", "value": "68 % of control"}
    ]},
    {"smiles": "COc1nc(=O)n(C2C=CC(=O)O2)cc1F", "note": "(stereo not given)", "values": [
      {"measurement": "T/C", "setting": "dose: 12.5 mg/kg/injection, schedule: Q07DX002 (ip), vehicle: saline", "value": "117 % of control"},
      {"measurement": "T/C", "setting": "[3]", "value": "113 % of control"},
      {"measurement": "T/C", "setting": "[4]", "value": "109 % of control"}
    ]},
    {"smiles": "COc1cc(NS(C)(=O)=O)ccc1Nc1c2ccccc2nc2ccccc12", "values": [
      {"measurement": "T/C", "setting": "dose: 0.5 mg/kg/injection, schedule: Q07DX003 (ip), vehicle: other", "value": "68 % of control"},
      {"measurement": "T/C", "setting": "dose: 1.0 mg/kg/injection, schedule: Q07DX002 (ip), vehicle: other", "value": "93 % of control"},
      {"measurement": "T/C", "setting": "dose: 1.0 mg/kg/injection, schedule: Q07DX003 (ip), vehicle: other", "value": "88 % of control"},
      {"measurement": "T/C", "setting": "dose: 2.0 mg/kg/injection, schedule: Q07DX003 (ip), vehicle: other", "value": "42 % of control"},
      {"measurement": "T/C", "setting": "dose: 4.0 mg/kg/injection, schedule: Q07DX002 (ip), vehicle: other", "value": "78 % of control and 91 % of control"},
      {"measurement": "T/C", "setting": "dose: 4.0 mg/kg/injection, schedule: Q07DX003 (ip), vehicle: other", "value": "56 % of control"},
      {"measurement": "T/C", "setting": "dose: 8.0 mg/kg/injection, schedule: Q07DX003 (ip), vehicle: other", "value": "47 % of control"}
    ]},
    {"smiles": "COc1cccc(C2NC(=O)c3c(n[nH]c3N)S2)c1O", "note": "(stereo not given)", "values": [
      {"measurement": "T/C", "setting": "dose: 25.0 mg/kg/injection, schedule: Q07DX002 (ip), vehicle: saline with Tween-80", "value": "102 % of control"},
      {"measurement": "T/C", "setting": "dose: 50.0 mg/kg/injection, schedule: Q07DX002 (ip), vehicle: saline with Tween-80", "value": "106 % of control"},
      {"measurement": "T/C", "setting": "[5]", "value": "90 % of control"},
      {"measurement": "T/C", "setting": "dose: 200.0 mg/kg/injection, schedule: Q07DX002 (ip), vehicle: saline with Tween-80", "value": "94 % of control"},
      {"measurement": "T/C", "setting": "[6]", "value": "59 % of control"}
    ]},
    {"smiles": "CCc1ncnc2cc(OCC3CO3)c(OC)cc12", "note": "(stereo not given)", "values": [
      {"measurement": "T/C", "setting": "[3]", "value": "93 % of control"},
      {"measurement": "T/C", "setting": "[4]", "value": "47 % of control"}
    ]},
    {"smiles": "Nc1nc2nc[nH]c2c(=O)[nH]1", "values": [
      {"measurement": "T/C", "setting": "dose: 100.0 mg/kg/injection, schedule: Q07DX002 (ip), vehicle: suspension in saline", "value": "90 % of control"},
      {"measurement": "T/C", "setting": "dose: 200.0 mg/kg/injection, schedule: Q07DX002 (ip), vehicle: suspension in saline", "value": "83 % of control"}
    ]},
    {"smiles": "COc1cc2cc(c1Cl)N(C)C(=O)CC(OC(=O)C(C)C)C1(C)OC1C(C)C1CC(O)(NC(=O)O1)C(OC)/C=C/C=C(C)C2", "note": "(stereo not given)", "values": [
      {"measurement": "T/C", "setting": "dose: 6.2 micrograms/kg/injection, schedule: Q07DX003 (ip), vehicle: saline + alcohol", "value": "109 % of control"},
      {"measurement": "T/C", "setting": "dose: 12.5 micrograms/kg/injection, schedule: Q07DX003 (ip), vehicle: saline + alcohol", "value": "90 % of control"},
      {"measurement": "T/C", "setting": "dose: 25.0 micrograms/kg/injection, schedule: Q07DX003 (ip), vehicle: saline + alcohol", "value": "88 % of control"},
      {"measurement": "T/C", "setting": "dose: 50.0 micrograms/kg/injection, schedule: Q07DX003 (ip), vehicle: saline + alcohol", "value": "79 % of control"},
      {"measurement": "T/C", "setting": "dose: 100.0 micrograms/kg/injection, schedule: Q07DX003 (ip), vehicle: saline + alcohol", "value": "93 % of control"}
    ]},
    {"smiles": "Nc1ccc(S(N)(=O)=O)cc1", "values": [
      {"measurement": "T/C", "setting": "[5]", "value": "103 % of control"},
      {"measurement": "T/C", "setting": "dose: 112.0 mg/kg/injection, schedule: Q07DX002 (ip), vehicle: saline with Tween-80", "value": "82 % of control and 100 % of control"},
      {"measurement": "T/C", "setting": "[6]", "value": "122 % of control"},
      {"measurement": "T/C", "setting": "dose: 800.0 mg/kg/injection, schedule: Q07DX002 (ip), vehicle: saline with Tween-80", "value": "76 % of control"},
      {"measurement": "T/C", "setting": "dose: 1600.0 mg/kg/injection, schedule: Q07DX002 (ip), vehicle: saline with Tween-80", "value": "101 % of control"},
      {"measurement": "T/C", "setting": "dose: 1800.0 mg/kg/injection, schedule: Q07DX002 (ip), vehicle: saline with Tween-80", "value": "80 % of control and 84 % of control"}
    ]}
  ]
}
